Experiments:
Type in all cases: functional
T47D [1] = assay: Growth inhibition of human T47D cells after 48 hrs by sulforhodamine B assay; conditions: for CC50: read-out: LC50 (the source's name)
[2] = Growth inhibition of human OVCAR3 cells assessed as cell growth at 10^-6 M after 48 hrs by sulforhodamine B assay; conditions: OVCAR-3, 48 h, read-out: Activity
SK-MEL-2 = assay: Growth inhibition of human SK-MEL-2 cells assessed as cell growth at 10^-6 M after 48 hrs by sulforhodamine B assay; conditions: SK-MEL-2, 48 h, read-out: Activity
SNB-75 = assay: Growth inhibition of human SNB75 cells assessed as cell growth at 10^-6 M after 48 hrs by sulforhodamine B assay; conditions: SNB-75, 48 h, read-out: Activity
MDA-MB-468 = assay: Growth inhibition of human MDA-MB-468 cells assessed as cell growth at 10^-7 M after 48 hrs by sulforhodamine B assay; conditions: MDA-MB-468, 48 h, read-out: Activity
[3] = Growth inhibition of human UO31 cells assessed as cell growth at 10^-7 M after 48 hrs by sulforhodamine B assay; conditions: UO-31, 48 h, read-out: Activity
[4] = Growth inhibition of human OVCAR8 cells assessed as cell growth at 10^-7 M after 48 hrs by sulforhodamine B assay; conditions: OVCAR-8, 48 h, read-out: Activity
[5] = Growth inhibition of human UACC257 cells assessed as cell growth at 10^-5 M after 48 hrs by sulforhodamine B assay; conditions: UACC-257, 48 h, read-out: Activity
T47D [6] = assay: Growth inhibition of human T47D cells assessed as cell growth at 10^-6 M after 48 hrs by sulforhodamine B assay; conditions: read-out: Activity
[7] = Growth inhibition of human UO31 cells assessed as cell growth at 10^-6 M after 48 hrs by sulforhodamine B assay; conditions: UO-31, 48 h, read-out: Activity
786-0 = assay: Growth inhibition of human 786-0 cells assessed as cell growth at 10^-6 M after 48 hrs by sulforhodamine B assay; conditions: 786-0, 48 h, read-out: Activity
[8] = Growth inhibition of human OVCAR3 cells assessed as cell growth at 10^-4 M after 48 hrs by sulforhodamine B assay; conditions: OVCAR-3, 48 h, read-out: Activity
[9] = Growth inhibition of human SF295 cells assessed as cell growth at 10^-4 M after 48 hrs by sulforhodamine B assay; conditions: SF-295, 48 h, read-out: Activity
KM12 = assay: Growth inhibition of human KM12 cells assessed as cell growth at 10^-4 M after 48 hrs by sulforhodamine B assay; conditions: KM12, 48 h, read-out: Activity
HT-29 = assay: Growth inhibition of human HT-29 cells assessed as cell growth at 10^-4 M after 48 hrs by sulforhodamine B assay; conditions: HT-29, 48 h, read-out: Activity
[10] = Growth inhibition of human HOP92 cells assessed as cell growth at 10^-4 M after 48 hrs by sulforhodamine B assay; conditions: HOP-92, 48 h, read-out: Activity
SK-MEL-5 [11] = assay: Growth inhibition of human SK-MEL-5 cells assessed as cell growth at 10^-8 M after 48 hrs by sulforhodamine B assay; conditions: SK-MEL-5, 48 h; for growth at 0.01 µM: read-out: Activity; for CC50: read-out: pLC50 (the source's name) (converted); for TGI: read-out: pTGI (converted)
M14 = assay: Growth inhibition of human M14 cells assessed as cell growth at 10^-8 M after 48 hrs by sulforhodamine B assay; conditions: M14, 48 h; for growth at 0.01 µM: read-out: Activity; for CC50: read-out: pLC50 (the source's name) (converted); for TGI: read-out: pTGI (converted)
SF-268 [12] = assay: Growth inhibition of human SF268 cells assessed as cell growth at 10^-8 M after 48 hrs by sulforhodamine B assay; conditions: SF-268, 48 h; for growth at 0.01 µM: read-out: Activity; for TGI: read-out: pTGI (converted)
[13] = Growth inhibition of human HOP92 cells assessed as cell growth at 10^-8 M after 48 hrs by sulforhodamine B assay; conditions: HOP-92, 48 h; for growth at 0.01 µM: read-out: Activity; for TGI: read-out: pTGI (converted)
A549 = assay: Growth inhibition of human A549/ATCC cells assessed as cell growth at 10^-8 M after 48 hrs by sulforhodamine B assay; conditions: A549, 48 h; for growth at 0.01 µM: read-out: Activity; for TGI: read-out: pTGI (converted)
MDA-MB-435 = assay: Growth inhibition of human MDA-MB-435 cells after 48 hrs by sulforhodamine B assay; conditions: MDA-MB-435, 48 h; for CC50: read-out: LC50 (the source's name)
[14] = Growth inhibition of human LOXIMVI cells after 48 hrs by sulforhodamine B assay; conditions: LOX IMVI
SF-268 [15] = assay: Growth inhibition of human SF268 cells after 48 hrs by sulforhodamine B assay; conditions: SF-268, 48 h; for CC50: read-out: LC50 (the source's name)
[16] = Growth inhibition of human SF295 cells after 48 hrs by sulforhodamine B assay; conditions: SF-295, 48 h; for CC50: read-out: LC50 (the source's name)
NCI-H23 = assay: Growth inhibition of human NCI-H23 cells after 48 hrs by sulforhodamine B assay; conditions: NCI-H23, 48 h; for CC50: read-out: LC50 (the source's name)
PC-3 = assay: Growth inhibition of human PC3 cells assessed as cell growth at 10^-4 M after 48 hrs by sulforhodamine B assay; conditions: PC-3, 48 h, read-out: Activity
[17] = Growth inhibition of human RXF393 cells assessed as cell growth at 10^-4 M after 48 hrs by sulforhodamine B assay; conditions: RXF 393, 48 h, read-out: Activity
SK-MEL-5 [18] = assay: Growth inhibition of human SK-MEL-5 cells assessed as cell growth at 10^-7 M after 48 hrs by sulforhodamine B assay; conditions: SK-MEL-5, 48 h, read-out: Activity
SK-MEL-28 = assay: Growth inhibition of human SK-MEL-28 cells assessed as cell growth at 10^-7 M after 48 hrs by sulforhodamine B assay; conditions: SK-MEL-28, 48 h, read-out: Activity
[19] = Growth inhibition of human HOP92 cells assessed as cell growth at 10^-7 M after 48 hrs by sulforhodamine B assay; conditions: HOP-92, 48 h, read-out: Activity
HOP-62 = assay: Growth inhibition of human HOP62 cells assessed as cell growth at 10^-7 M after 48 hrs by sulforhodamine B assay; conditions: HOP-62, 48 h, read-out: Activity
[20] = Growth inhibition of human OVCAR5 cells assessed as cell growth at 10^-8 M after 48 hrs by sulforhodamine B assay; conditions: OVCAR-5, 48 h; for growth at 0.01 µM: read-out: Activity; for TGI: read-out: pTGI (converted)

O=C1/C(=C/c2ccc(Cl)cc2Cl)CN(S(=O)(=O)c2ccccc2)C/C1=C\c1ccc(Cl)cc1Cl
GI50 (T47D [1]): 1.28 µM | TGI (T47D [1]): 100 µM | CC50 (T47D [1]): > 100 µM | growth at 1 µM [2]: -10% | growth at 1 µM (SK-MEL-2): 98% | growth at 1 µM (SNB-75): 38% | growth at 0.1 µM (MDA-MB-468): 94% | growth at 0.1 µM [3]: 93% | growth at 0.1 µM [4]: 94% | growth at 10 µM [5]: 27% | growth at 1 µM (T47D [6]): 55% | growth at 1 µM [7]: -22% | growth at 1 µM (786-0): -37% | growth at 100 µM [8]: -65% | growth at 100 µM [9]: -11% | growth at 100 µM (KM12): -56% | growth at 100 µM (HT-29): -16% | growth at 100 µM [10]: -20% | growth at 0.01 µM (SK-MEL-5 [11]): 94% | CC50 (SK-MEL-5 [11]): > 100 µM | TGI (SK-MEL-5 [11]): > 100 µM | GI50 (M14): 3.63 µM | growth at 0.01 µM (M14): 102% | CC50 (M14): > 100 µM | TGI (M14): > 100 µM | GI50 (SF-268 [12]): 0.447 µM | LC50 (SF-268 [12]): > 100 µM | growth at 0.01 µM (SF-268 [12]): 99% | TGI (SF-268 [12]): > 100 µM | GI50 [13]: 1.7 µM | LC50 [13]: > 100 µM | growth at 0.01 µM [13]: 81% | TGI [13]: 5.5 µM | GI50 (A549): 0.275 µM | LC50 (A549): > 100 µM | growth at 0.01 µM (A549): 93% | TGI (A549): 0.891 µM | GI50 (MDA-MB-435): 0.985 µM | TGI (MDA-MB-435): 3.21 µM | CC50 (MDA-MB-435): > 100 µM | GI50 [14]: 0.203 µM | TGI [14]: 0.508 µM | GI50 (SF-268 [15]): 0.447 µM | TGI (SF-268 [15]): > 100 µM | CC50 (SF-268 [15]): > 100 µM | GI50 [16]: 0.345 µM | TGI [16]: 6.67 µM | CC50 [16]: > 100 µM | GI50 (NCI-H23): 0.423 µM | TGI (NCI-H23): 2.71 µM | CC50 (NCI-H23): > 100 µM | growth at 100 µM (PC-3): -26% | growth at 100 µM [17]: -88% | growth at 0.1 µM (SK-MEL-5 [18]): 98% | growth at 0.1 µM (SK-MEL-28): 93% | growth at 0.1 µM [19]: 77% | growth at 0.1 µM (HOP-62): 113% | GI50 [20]: 2.14 µM | LC50 [20]: > 100 µM | growth at 0.01 µM [20]: 92% | TGI [20]: 7.41 µM

Cc1ccc(S(=O)(=O)N2C/C(=C\c3cc(F)cc(F)c3)C(=O)/C(=C/c3cc(F)cc(F)c3)C2)cc1
GI50 (T47D [1]): 1.79 µM | TGI (T47D [1]): 6.09 µM | CC50 (T47D [1]): 54.3 µM | growth at 1 µM [2]: 16% | growth at 1 µM (SK-MEL-2): 89% | growth at 1 µM (SNB-75): 82% | growth at 0.1 µM (MDA-MB-468): 83% | growth at 0.1 µM [3]: 94% | growth at 0.1 µM [4]: 82% | growth at 10 µM [5]: -57% | growth at 1 µM (T47D [6]): 74% | growth at 1 µM [7]: 55% | growth at 1 µM (786-0): 34% | growth at 100 µM [8]: -98% | growth at 100 µM [9]: -75% | growth at 100 µM (KM12): -88% | growth at 100 µM (HT-29): -75% | growth at 100 µM [10]: -58% | GI50 (SK-MEL-5 [11]): 0.288 µM | growth at 0.01 µM (SK-MEL-5 [11]): 98% | CC50 (SK-MEL-5 [11]): 3.63 µM | TGI (SK-MEL-5 [11]): 1.07 µM | GI50 (M14): 0.363 µM | growth at 0.01 µM (M14): 103% | CC50 (M14): 5.89 µM | TGI (M14): 1.41 µM | GI50 (SF-268 [12]): 0.427 µM | LC50 (SF-268 [12]): 14.5 µM | growth at 0.01 µM (SF-268 [12]): 98% | TGI (SF-268 [12]): 2.14 µM | GI50 [13]: 1.12 µM | LC50 [13]: 9.77 µM | growth at 0.01 µM [13]: 72% | TGI [13]: 3.31 µM | GI50 (A549): 2.88 µM | LC50 (A549): > 100 µM | growth at 0.01 µM (A549): 94% | TGI (A549): 14.8 µM | GI50 (MDA-MB-435): 0.241 µM | TGI (MDA-MB-435): 0.685 µM | CC50 (MDA-MB-435): 3.63 µM | GI50 [14]: 0.175 µM | TGI [14]: 0.339 µM | CC50 ([14]; read-out: LC50 (the source's name)): 0.656 µM | GI50 (SF-268 [15]): 0.431 µM | TGI (SF-268 [15]): 2.15 µM | CC50 (SF-268 [15]): 14.4 µM | GI50 [16]: 0.466 µM | TGI [16]: 2.5 µM | CC50 [16]: 15.7 µM | GI50 (NCI-H23): 1.75 µM | TGI (NCI-H23): 4.99 µM | CC50 (NCI-H23): 26.8 µM | growth at 100 µM (PC-3): -84% | growth at 100 µM [17]: -95% | growth at 0.1 µM (SK-MEL-5 [18]): 89% | growth at 0.1 µM (SK-MEL-28): 93% | growth at 0.1 µM [19]: 69% | growth at 0.1 µM (HOP-62): 110% | GI50 [20]: 1.02 µM | LC50 [20]: 7.41 µM | growth at 0.01 µM [20]: 95% | TGI [20]: 2.75 µM
